Here are results for one compound from patent US20060134725A1, “Method for the determination of the presence of an antibiotic in a fluid” (priority 2003, published 2006).

Common to all, as to format: cell-based
Assay [1] has as its system Bacillus stearothermophilus var. calidolactis. Briefly: Delvotest microbiological test, 0.27 ml test medium, nutrients added as tablet, different volumes of milk. The settings on record: for concentration giving a Z-value of 0 (threshold): 2.6 hours at 64° C., Z=0.35.a+0.65.b, FIG. 1. The source says: (§1) The arrangement can be used for detecting residues of antibiotics in milk. The commercially available Delvotest® and BR®-test are commonly used. Delvotest® comprises an agar matrix, CFU's of an acid forming microorganism, as well as a color indicator. With the arrangement mentioned above it is possible to automatically scan the bottom side of each of the samples in a test plate. The color and the brightness of the reflected light are registered in three variables, each describing one color component, for instance the so-called L*a*b* model. In the L*a*b* model, the color spectrum is divided in a two-dimensional matrix. The position of a color in this matrix is registered by means of the two variables “a” and “b”. The variable L indicates the intensity (for instance, from light blue to dark-blue). It is possible to make a criterion comprising the a-value, b-value and L-value to make a composite function as follows: Z=wL.L+wa.a+wb.b
(§2) where wL, wa and wb are weighting factors for the L-value, a-value and b-value, respectively. […] By combining two or more of the color components in the L*a*b* model in a predetermined manner that depends on the type of residue and the sample, an accurate detection is possible. In practice, a certain value of Z at which a test should switch between positive and negative result (the threshold value) can be experimentally predetermined.
(§3) As outlined in the detailed description, the following equation was used: Z=0.35.a+0.65.b. The explanation of the symbols used in the Figure is as follows.
(§4) A commercially available microbiological test system (Delvotest®) having 0.27 ml of test medium containing agar, CFU's of Bacillus stearothermophilus var. calidolactis, an antifolate, and the indicator Bromocresol Purple was investigated using milk with added penicillin G in concentrations of 0, 2, 3, 4 and 6 ppb. These five milk samples were applied to the test systems in a series of four different volumes, ie. 0.05 ml, 0.10 ml (the Delvotest® recommended volume), 0.20 ml and 0.30 ml. Before addition of the milk, a tablet with nutrients was applied on the test medium. After the milk was added, the tests were incubated for 2.6 hours at 64° C. If there are no or little antibiotics that inhibit the growth of the test organism, after some time, an acid environment is formed by the growing microorganisms and the indicator changes color from blue/purple to yellow. However, if there are sufficient antibiotics to inhibit growth, the color of the indicator remains purple.
Firstly, the colors were measured using the scanning apparatus described in the detailed description using the following formula for the Z-value: Z=0.35.a+0.65.b. […]

Assay [2] has the same test system. Briefly: Delvotest microbiological test, 0.27 ml test medium, nutrients as tablet, different milk volumes at different incubation times. The settings on record: 4 ppb penicillin G.
Description: as §1, §2, §3, §4
A similar experimental setup as in Example 1 was used. […] (for 2.4 h, normally referred to as the point of indicator change, and 3.0 h, normally referred to as the point of reading). […]

Assay [3] has the same test system. Briefly: Delvotest microbiological test, 0.15 ml test medium with nutrients present in the test medium, different volumes of milk, visual colour score. Particulars: 3 hours at 64° C., FIG. 3. The method, then: In this test, the nutrients were present in the test medium. The explanation of the symbols used in the Figure is as follows.
A commercially available microbiolgical test system (Delvotest®) having 0.15 ml of test medium containing agar, CFU's of Bacillus stearothermophilus var. calidolactis, an antifolate, nutrients, and the indicator Bromocresol Purple was investigated using milk with added penicillin G in concentrations of 0, 0.5, 1, 2, 3 and 4 ppb. These six different milk samples were applied to the test systems in a series of five different volumes, i.e. 0.05 ml, 0.10 ml (the Delvotest® recommended volume), 0.15 ml, 0.20 ml and 0.30 ml. After the milk was added, the tests were incubated for 3 hours at a temperature of 64° C. If there are no antibiotics (or only little) that inhibit the growth of the test organism, after a certain amount of time, an acid environment is formed by the growing microorganisms. Then, the color of the indicator changes from blue/purple to yellow.
Intermediate color changes were assigned values of −2, −1, 0, +1 or +2, depending on the degree of coloration. […] If, for example, a visual color of 2 is chosen as the required threshold value, it can be seen from FIG. 3 that, whereas the standard recommended amount of 0.10 ml milk gives a color of 2 at a concentration of 2 ppb penicillin G, whereas for 0.15, 0.20 and 0.30 ml milk this threshold already is reached at 1.7 ppb penicillin G.

In the case of `CC1(C)S[C@@H]2[C@H](NC(=O)Cc3ccccc3)C(=O)N2[C@H]1C(=O)O` [penicillin G], the “concentration giving a Z-value of 0 (threshold)” value in assay [1] (0.10 ml milk on 0.27 ml test medium) was found to be 3 ppb; in assay [1] (0.20 ml milk on 0.27 ml test medium), 2.3 ppb; in assay [1] (0.30 ml milk on 0.27 ml test medium), 2.0 ppb. The “change of sensitivity of the test towards the antibiotic” value in assay [1] (milk, doubling the amount of fluid sample advocated by the producer of the test) is listed as “increases by a third”. Further, the Z-value in assay [2] (0.10 ml milk, 2.4 h at 64° C., line ◯ of FIG. 2) turned out to be 11; in assay [2] (0.10 ml milk, 3.0 h at 64° C., line ⋄ of FIG. 2), 4; in assay [2] (0.30 ml milk, 2.4 h at 64° C., line Δ of FIG. 2) it was 14; in assay [2] (0.30 ml milk, 3.0 h at 64° C., line □ of FIG. 2), 13. For the same compound, the “concentration giving a visual color of 2 (threshold)” value in assay [3] (0.10 ml milk on 0.15 ml test medium) came out at 2 ppb; in assay [3] (0.15 ml milk on 0.15 ml test medium), 1.7 ppb; in assay [3] (0.20 ml milk on 0.15 ml test medium), 1.7 ppb; in assay [3] (0.30 ml milk on 0.15 ml test medium), 1.7 ppb.
